The values below are quoted from earlier work in patent publication US8758840B2, “Method of treating areas of osteoarthritis in animals and human beings with milkweed seed oil” (Natural Fibers Corporation, priority 2011, dated 2014).

For the series, the system named is pro-inflammatory and matrix degradation mediators involved in osteoarthritis-induced cartilage degradation. The conditions noted are these: laboratory tests, Gabay et al. 2010.

For the compound `CC[C@H](/C=C/[C@@H](C)[C@H]1CC[C@H]2[C@@H]3CC=C4C[C@@H](O)CC[C@]4(C)[C@H]3CC[C@]12C)C(C)C` [stigmasterol], the “effect on pro-inflammatory and matrix degradation mediators” value is “inhibits several pro-inflammatory and matrix degradation mediators”.
